Laboratory results as given in patent publication US4605744A, “Imidazole derivatives” (Hoffmann-La Roche Inc., priority 1985, dated 1986).
Where a name gives a salt, the structure may show the parent alone. Read-outs that look alike come from different tables or passages of the source.

Assays:
Assay type in all cases: cell-based
[1] = test system: E. coli 257; assay: In vitro antibacterial activity (MIC, Mueller-Hinton broth)
Protocol: Drug dilutions are prepared in Mueller-Hinton broth ranging from 128 to 0.008 μg/ml. The diluted agents are dispensed in 100 μl amounts into the wells of a 96-well tray and used immediately or frozen at -10° to -70° C. until needed. Using an automated inoculator, 1.5 μl of a 10^-2 dilution of an overnight culture is added to each well of the tray. The tops of the trays are then sealed using transparent tape and incubated overnight at 37° C. The trays are examined with the aid of a viewer. The lowest concentration at which no growth is observed is considered to be the minimum inhibitory concentration (MIC).

[2] = test system: C. diversus CDC 1663-72; assay: In vitro antibacterial activity (MIC); details: Citrobacter koseri, CDC166372; C. diversus CDC 1663-72; read-out: MIC
Method in brief: (§1)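 Mueller-Hinton broth carries the compound at 128–0.008 μg/ml; diluted drug may be used fresh or stored frozen at -10° to -70° C before use. Wells are seeded with a 10^-2 dilution of overnight culture and incubated overnight at 37° C.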

[3] = test system: C. freundii CDC6; assay: In vitro antibacterial activity (MIC); details: Citrobacter freundii, CDC6, C. freundii CDC6; read-out: MIC
Method in brief: as §1

[4] = test system: E. cloacae 24; assay: In vitro antibacterial activity (MIC)
Method in brief: as §1

[5] = test system: P. mirabilis 503-1136; assay: In vitro antibacterial activity (MIC); details: Proteus mirabilis, 5031136, P. mirabilis 503-1136; read-out: MIC
Method in brief: as §1

[6] = test system: P. mirabilis 620A; assay: In vitro antibacterial activity (MIC); details: Proteus mirabilis, 620A, P. mirabilis 620A; read-out: MIC
Method in brief: as §1

[7] = test system: P. mirabilis 90; assay: In vitro antibacterial activity (MIC); details: Proteus mirabilis, 90, P. mirabilis 90; read-out: MIC
Method in brief: as §1

[8] = test system: P. vulgaris 100; assay: In vitro antibacterial activity (MIC); details: Proteus vulgaris; P. vulgaris 100; read-out: MIC
Method in brief: as §1

[9] = test system: P. vulgaris 101; assay: In vitro antibacterial activity (MIC); details: Proteus vulgaris, 101, P. vulgaris 101; read-out: MIC
Method in brief: as §1

[10] = test system: S. aureus 1059B; assay: In vitro antibacterial activity (MIC); details: Staphylococcus aureus, read-out: MIC
Method in brief: as §1

[11] = test system: S. aureus Smith; assay: In vitro antibacterial activity (MIC); details: Staphylococcus aureus, S. aureus Smith; read-out: MIC
Method in brief: as §1

[12] = test system: S. marcescens S147; assay: In vitro antibacterial activity (MIC); details: Serratia marcescens; S. marcescens S147; read-out: MIC
Method in brief: as §1

[13] = test system: S. marcescens S1; assay: In vitro antibacterial activity (MIC); details: Serratia marcescens, S1, S. marcescens S1; read-out: MIC
Method in brief: as §1

[14] = test system: S. marcescens S5; assay: In vitro antibacterial activity (MIC); details: Serratia marcescens, S5, S. marcescens S5; read-out: MIC
Method in brief: as §1

[15] = test system: S. marcescens S714; assay: In vitro antibacterial activity (MIC); details: Serratia marcescens, S714, S. marcescens S714; read-out: MIC
Method in brief: as §1

[16] = test system: P. aeruginosa 5700; assay: In vitro antibacterial activity (MIC); details: Pseudomonas aeruginosa, 5700, P. aeruginosa 5700; read-out: MIC
Method in brief: as §1

[17] = test system: P. aeruginosa 5712; assay: In vitro antibacterial activity (MIC); details: Pseudomonas aeruginosa; P. aeruginosa 5712; read-out: MIC
Method in brief: as §1

[18] = test system: P. aeruginosa B; assay: In vitro antibacterial activity (MIC); details: Pseudomonas aeruginosa, read-out: MIC
Method in brief: as §1

[19] = test system: P. aeruginosa POW 151; assay: In vitro antibacterial activity (MIC); details: Pseudomonas aeruginosa, POW151
Method in brief: as §1

[20] = test system: P. aeruginosa Stone 130; assay: In vitro antibacterial activity (MIC); details: Pseudomonas aeruginosa, STONE130, read-out: MIC
Method in brief: as §1

[21] = test system: S. faecalis C1; assay: In vitro antibacterial activity (MIC); details: Enterococcus faecalis; S. faecalis C1; read-out: MIC
Method in brief: as §1

[22] = test system: S. pyogenes 503-782; assay: In vitro antibacterial activity (MIC); details: Streptococcus pyogenes, 503782; S. pyogenes 503-782; read-out: MIC
Method in brief: as §1

[23] = Escherichia coli, 257, E. coli 257, read-out: MIC
[24] = Enterobacter cloacae, 24, E. cloacae 24, read-out: MIC

Row | SMILES | MIC [1, 23] [µg/mL] | MIC [2] [µg/mL] | MIC [3] [µg/mL] | MIC [4, 24] [µg/mL] | MIC [5] [µg/mL] | MIC [6] [µg/mL] | MIC [7] [µg/mL] | MIC [8] [µg/mL] | MIC [9] [µg/mL] | MIC [10] [µg/mL] | MIC [11] [µg/mL] | MIC [12] [µg/mL] | MIC [13] [µg/mL] | MIC [14] [µg/mL] | MIC [15] [µg/mL] | MIC ([1]; Escherichia coli, 257) [µg/mL] | MIC [16] [µg/mL] | MIC [17] [µg/mL] | MIC [18] [µg/mL] | MIC [19] [µg/mL] | other results
1 | CC1(C)S[C@@H]2[C@H](N=CN3CCC(CCCn4ccnc4CO)CC3)C(=O)N2[C@H]1C(=O)O [R, [2S-(2alpha,5alpha,6beta)]-6-[[[4-[3-[2-(hydroxymethyl)-1H-imidazol-1-yl]propyl-1-piperidinyl]methylene]amino]-3,3-dimethyl-7-oxo-4-thia-1-azabicyclo[3.2.0]heptane-2-carboxylic acid hydrochloride 1.1 molar hydrate] | 0.016 | 0.016 | 0.062 | 0.25 | 4 | 64 | 0.5 | 2 | 1 | 64 | 8 | 0.125 | 0.062 | 1 | 1 | – | – | – | – | – | –
2 | CC1(C)S[C@@H]2[C@H](N=CN3CCC(CCCn4ccnc4[N+](=O)[O-])CC3)C(=O)N2[C@H]1C(=O)O [K, [2S-(2alpha,5alpha,6beta)]-6-[[[4-[3-(2-nitro-1H-imidazol-1-yl)propyl]piperidinyl]methylene]amino]-3,3-dimethyl-7-oxo-4-thia-1-azabicyclo[3.2.0]heptane-2-carboxylic acid hydrochloride 0.66 molar hydrate] | – | 0.25 | 0.5 | 1 | 8 | 16 | 8 | 16 | 16 | 128 | 8 | 2 | 2 | 8 | 8 | 0.5 | 4 | > 128 | 0.25 | > 128 | MIC [20]: > 128 µg/mL; MIC [21]: 128 µg/mL; MIC [22]: 128 µg/mL
3 | CC1(C)S[C@@H]2[C@H](N=CN3CCC(CCn4ccnc4)CC3)C(=O)N2[C@H]1C(=O)O [B, [2S-2alpha,5alpha,6beta)]-6-[[[4-[2-(1H-imidazol-1-yl)ethyl]-1-piperidinyl]methylene]amino]-3,3-dimethyl-7-oxo-4-thia-1-azabicyclo[3.2.0]heptane-2-carboxylic acid hydrate hydrochloride] | – | 0.25 | 0.25 | – | 8 | > 128 | 2 | 8 | 1 | > 128 | – | 0.5 | 0.5 | 2 | 1 | 0.25 | > 128 | > 128 | > 128 | > 128 | MIC ([4]; Enterobacter cloacae, 24): 2 µg/mL; MIC [21]: > 128 µg/mL; MIC [22]: 8 µg/mL
4 | CC1(C)S[C@@H]2[C@H](N=CN3CCC(Cc4ncc[nH]4)CC3)C(=O)N2[C@H]1C(=O)O [Q, [2S-(2alpha,5alpha,6beta)]-6-[[[4-(1H-imidazol-2-yl-methyl)-1-piperidinyl]methylene]amino]-3,3-dimethyl-7-oxo-4-thia-1-azabicyclo[3.2.0]heptane-2-carboxylic acid hydrochloride] | 0.062 | 0.062 | 64 | 0.5 | 8 | > 128 | 0.5 | 1 | 8 | 128 | 8 | 0.125 | 0.125 | 0.5 | 0.25 | – | – | – | – | > 128 | MIC [20]: > 128 µg/mL
